# According to patent publication US5391549A, “Cinnoline-3-carboxylic acid derivatives” (Mitsubishi Kasei Corporation, priority 1992, dated 1995):
# Structures can show the parent of a compound that is named as a salt.
# Biological target: T1, 5-HT3 receptor (Rattus norvegicus, UniProt P35563)
# T1 construct: from tissue; host or cells: whole living rat (male Wistar, urethane-anesthetized); endogenous receptor
# T1 sequence (P35563 24-483): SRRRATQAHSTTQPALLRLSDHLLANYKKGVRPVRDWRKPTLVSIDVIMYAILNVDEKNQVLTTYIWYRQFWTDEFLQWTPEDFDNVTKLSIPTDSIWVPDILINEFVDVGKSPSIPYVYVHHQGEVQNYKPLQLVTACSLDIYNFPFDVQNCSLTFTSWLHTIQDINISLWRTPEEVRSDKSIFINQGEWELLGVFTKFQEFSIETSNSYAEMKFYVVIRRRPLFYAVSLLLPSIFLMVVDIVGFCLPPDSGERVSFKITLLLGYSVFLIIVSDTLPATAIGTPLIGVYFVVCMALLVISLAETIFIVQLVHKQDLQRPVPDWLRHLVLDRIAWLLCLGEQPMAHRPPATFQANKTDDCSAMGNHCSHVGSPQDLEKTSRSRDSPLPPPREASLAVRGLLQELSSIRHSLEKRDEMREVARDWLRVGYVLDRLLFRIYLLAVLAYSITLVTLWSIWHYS
# Test: Inhibitory effect on the Bezold-Jarish's reflex induced in anesthetized rats with 5-HT (5HT3 receptor antagonistic effect)
# Format: in vivo, rat (male Wister strain)
# Settings: iv, i.v. test compound, 5-HT 8 μg/kg i.v., urethane-anesthetized male Wister rats, dose giving 50% inhibition, read-out: B-J Reflex Inhibition (ID50)
# Method: 1) 5HT3 Receptor Antagonistic Effect
# The antagonistic activity of the compounds of the invention to 5-HT3 receptor was evaluated as to the inhibitory effect on the Bezold-Jarish's reflex induced in anesthetized rats with 5-HT as follows.
# Male Wister strain rats (300-400 g weight) were anesthetized by peritoneal injection of urethane (1.25 g/kg) and the heart rate was monitored from an electrocardiograph. Rats were intravenously injected with physiological saline (0.5 ml/kg) and 5-HT (8 μg/kg) solution (0.5 ml/kg) in physiological saline at five minutes interval and the change in the heart rate was recorded (A). Another group of rats were intravenously injected with a test compound and 5-HT solution in the same manner as the above at five minutes interval and the change in the heart rate was recorded (B). The percent inhibition of 5-HT-induced Bezold-Jarish's reflex was calculated as follows.
# Inhibition (%)=(1-B/A)×100
# In the Table, ID50 is a dose of a compound (I) of the invention which gives a 50% inhibition. The compound number in Table 4 correspond to those in Tables 1-3.
row,SMILES,ED50 [µg/kg]
1,"CCCn1nc(C(=O)NC2CC3CCC(C2)N3C)c(=O)c2ccccc21 (stereo not drawn) [Compound 86, N-(endo-8-methyl-8-azabicyclo[3.2.1]oct-3-yl)-1-propyl-1,4-dihydro-4-oxocinnoline-3-carboxamide hydrochloride]",0.15
2,"CCCn1nc(C(=O)NC2CC3CCC(C2)N3C)c(=O)c2cccc(F)c21 (stereo not drawn) [Compound 102, 8-Fluoro-N-(endo-8-methyl-8-azabicyclo[3.2.1]oct-3-yl)-1-propyl-1,4-dihydro-4-oxocinnoline-3-carboxamide hydrochloride]",0.2
3,"CCn1nc(C(=O)NC2CC3CCC(C2)N3C)c(=O)c2ccccc21 (stereo not drawn) [Compound 76, N-(endo-8-methyl-8-azabicyclo[3.2.1]oct-3yl)-1-ethyl-1,4-dihydro-4-oxocinnoline-3-carboxamide hydrochloride]",0.3
